Consider 22 compounds from patent publication US8759334B2, “Compounds useful for the treatment of metabolic and inflammatory diseases” (Galapagos NV, priority 2011, dated 2014).

The target of this assay is T1, GPR43 (Homo sapiens, UniProt O15552).
T1 construct: expressed in transfected cells
T1 sequence (O15552 1-330): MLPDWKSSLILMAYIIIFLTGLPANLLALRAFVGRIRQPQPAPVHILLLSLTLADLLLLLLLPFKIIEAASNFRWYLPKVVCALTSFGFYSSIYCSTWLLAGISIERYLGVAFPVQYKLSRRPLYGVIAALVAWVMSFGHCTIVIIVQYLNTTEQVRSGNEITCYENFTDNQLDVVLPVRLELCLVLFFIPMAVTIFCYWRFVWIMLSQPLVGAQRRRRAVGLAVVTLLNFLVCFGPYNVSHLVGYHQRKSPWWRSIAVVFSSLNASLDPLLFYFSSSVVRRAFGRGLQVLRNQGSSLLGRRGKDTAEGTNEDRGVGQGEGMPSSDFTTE
The assay can be described thus: Calcium mobilization assay with probenecid. It counts as cell-based. Particulars: GPR43 stably expressing cells; triggered with sodium acetate at EC80; 2.5 mM probenecid; read-out: GPR43 assay with probenicid IC50. The protocol: The following assay can be used for determination of GPR43 activation. The assay measures intracellular calcium release induced by activation of GPR43. On day 1, GPR43 stably expressing cells were detached with mild trypsinization (Trypsin, 0.25% with EDTA 4Na, 5× diluted in PBS) centrifuged at 1000 rpm for 5 min and resuspended at 6.000 cells/25 […] medium (DMEM supplemented with 10% FBS, 10 μg/mL puromycin and 1% Pen/Strep). The cells were distributed in poly-D-lysine coated 384 well plates (black with clear bottom, 25 μL/well) and incubated overnight at 37° C. 10% CO2.
On day 2, 25 μL of a fluorescent Ca^2+ indicator (Calcium 4 assay; Molecular Devices) supplemented with 2.5 mM probenecid was added on top of the cells and incubated for 2 h at 37° C. Subsequently, compounds at increasing concentration (10 μL/well) were added to the plate and incubated for 15 min at 37° C.
To measure agonist activity of the compounds, compound was added to the well and the Ca^2+-flux was measured simultaneously to the […] of compound.

Each structure is given as a SMILES string.

In the case of `CN(Cc1ccc(Cl)cc1)C(=O)C1(C)CCN1C(=O)Cc1cc(F)cc(F)c1` (stereo not shown) [Compound 19, 1-[2-(3,5-Difluoro-phenyl)-acetyl]-2-methyl-azetidine-2-carboxylic acid (4-chloro-benzyl)-methyl-amide], the IC50 is over 1000 nM.
As to `Cc1cc(C)cc(CC(=O)N2CCC2(C)C(=O)N(C)Cc2cccc(Br)c2)c1` (stereo not shown) [Compound 39, 1-[2-(3,5-Dimethyl-phenyl)-acetyl]-2-methyl-azetidine-2-carboxylic acid (3-bromo-benzyl)-methyl-amide], the IC50 is over 1000 nM.
The value for `Cc1ccc(C)c(CC(=O)N2CCC2(C)C(=O)N(C)Cc2ccc(Cl)cc2)c1` (stereo not shown) [Compound 41, 1-[2-(2,5-Dimethyl-phenyl)-acetyl]-2-methyl-azetidine-2-carboxylic acid (4-chloro-benzyl)-methyl-amide] was over 1000 nM.
For the compound `COC(=O)[C@@H](C)N(Cc1ccc(Cl)cc1)C(=O)C1(C)CCN1C(=O)Cc1cc(C)cc(C)c1` (stereo partly drawn) [Compound 73, (R)-2-((4-Chloro-benzyl)-{1-[2-(3,5-dimethyl-phenyl)-acetyl]-2-methyl-azetidine-2-carbonyl}-amino)-propionic acid methyl ester], the IC50 was 501 to 1000 nM.
The value for `Cc1cc(C)cc(CC(=O)N2CCC2(C)C(=O)N(Cc2ccc(Cl)cc2)Cc2nnn[nH]2)c1` (stereo not shown) [Compound 76, 1-[2-(3,5-Dimethyl-phenyl)-acetyl]-2-methyl-azetidine-2-carboxylic acid (4-chloro-benzyl)-(1H-tetrazol-5-ylmethyl)-amide] was over 1000 nM; that for `Cc1cc(C)cc(CC(=O)N2CCC2(C)C(=O)N(CC(=O)NC2CC2)Cc2ccc(Cl)cc2)c1` (stereo not shown) [Compound 81, 1-[2-(3,5-Dimethyl-phenyl)-acetyl]-2-methyl-azetidine-2-carboxylic acid (4-chloro-benzyl)-cyclopropylcarbamoylmethyl-amide] was 101 to 500 nM; that for `CC1(C(=O)N(CCCC#N)Cc2ccc(Cl)cc2)CCN1C(=O)Cc1csc2ccccc12` (stereo not shown) [Compound 99, 1-(2-Benzo[b]thiophen-3-yl-acetyl)-2-methyl-azetidine-2-carboxylic acid (4-chloro-benzyl)-(3-cyano-propyl)-amide] was 101 to 500 nM.
The value for `Cc1cc(C)cc(CC(=O)N2CCC2(C)C(=O)N(CC(=O)NS(=O)(=O)c2ccccc2)Cc2ccc(Cl)cc2)c1` (stereo not shown) [Compound 104, 1-[2-(3,5-Dimethyl-phenyl)-acetyl]-2-methyl-azetidine-2-carboxylic acid (2-benzenesulfonylamino-2-oxo-ethyl)-(4-chloro-benzyl)-amide] was 501 to 1000 nM.
The value for `CN(Cc1ccc(Cl)cc1)C(=O)C1(C)CCN1C(=O)Cc1cccc2sccc12` (stereo not shown) [Compound 105, 1-(2-Benzo[b]thiophen-4-yl-acetyl)-2-methyl-azetidine-2-carboxylic acid (4-chloro-benzyl)-methyl-amide] was over 1000 nM; that for `CN(Cc1ccc(Cl)cc1)C(=O)C1(C)CCN1C(=O)Cc1ccc(F)c2ccccc12` (stereo not shown) [Compound 106, 1-[2-(4-Fluoro-naphthalen-1-yl)-acetyl]-2-methyl-azetidine-2-carboxylic acid (4-chloro-benzyl)-methyl-amide] was over 1000 nM.
`Cc1cc(C)cc(CC(=O)N2CCC2(C)C(=O)N(CCc2noc(O)n2)Cc2ccc(Cl)cc2)c1` (stereo not shown) [Compound 107, 1-[2-(3,5-Dimethyl-phenyl)-acetyl]-2-methyl-azetidine-2-carboxylic acid (4-chloro-benzyl)-[2-(5-hydroxy-[1,2,4]oxadiazol-3-yl)-ethyl]-amide]: the IC50 is over 1000 nM.
`CN(Cc1ccc(Cl)cc1)C(=O)C1(C)CCN1C(=O)Cc1cc2ccccc2s1` (stereo not shown) [Compound 108, 1-(2-Benzo[b]thiophen-2-yl-acetyl)-2-methyl-azetidine-2-carboxylic acid (4-chloro-benzyl)-methyl-amide]: the half-maximal inhibitory concentration (IC50) is over 1000 nM.
Consider `Cc1cc(C)cc(CC(=O)N2CCC2(C)C(=O)N(CCc2nnn[nH]2)Cc2ccc(Cl)cc2)c1` (stereo not shown) [Compound 109, 1-[2-(3,5-Dimethyl-phenyl)-acetyl]-2-methyl-azetidine-2-carboxylic acid (4-chloro-benzyl)-[2-(1H-tetrazol-5-yl)-ethyl]-amide], for which the 50% inhibitory concentration (IC50) was 101 to 500 nM.
The value for `Cc1cc(C)cc(CC(=O)N2CCC2(C)C(=O)N(Cc2ccc(Cl)cc2)Cc2nnc(O)o2)c1` (stereo not shown) [Compound 111, 1-[2-(3,5-Dimethyl-phenyl)-acetyl]-2-methyl-azetidine-2-carboxylic acid (4-chloro-benzyl)-(5-hydroxy-[1,3,4]oxadiazol-2-ylmethyl)-amide] was 501 to 1000 nM.
The value for `CN(Cc1ccc(Cl)cc1)C(=O)C1(C)CCN1C(=O)c1ccc2sccc2c1` (stereo not shown) [Compound 112, 1-(Benzo[b]thiophene-5-carbonyl)-2-methyl-azetidine-2-carboxylic acid (4-chloro-benzyl) methyl-amide] was 501 to 1000 nM.
For `Cc1cc(C)cc(CC(=O)N2CCC2(C)C(=O)N(Cc2ccc(Cl)cc2)Cc2noc(O)n2)c1` (stereo not shown) [Compound 114, 1-[2-(3,5-Dimethyl-phenyl)-acetyl]-2-methyl-azetidine-2-carboxylic acid (4-chloro-benzyl)-(5-hydroxy-[1,2,4]oxadiazol-3-ylmethyl)-amide], the IC50 lay in the range of 501 to 1000 nM.
The value for `Cc1cc(C)cc(CC(=O)N2CCC2(C)C(=O)N(CCc2cc(O)[nH]n2)Cc2ccc(Cl)cc2)c1` (stereo not shown) [Compound 116, 1-[2-(3,5-Dimethyl-phenyl)-acetyl]-2-methyl-azetidine-2-carboxylic acid (4-chloro-benzyl)-[2-(5-hydroxy-1H-pyrazol-3-yl)-ethyl]-amide] was over 1000 nM.
The value for `Cc1cc(C)cc(CC(=O)N2CCC2(C)C(=O)N(CCc2cc(O)n(C)n2)Cc2ccc(Cl)cc2)c1` (stereo not shown) [Compound 117, 1-[2-(3,5-Dimethyl-phenyl)-acetyl]-2-methyl-azetidine-2-carboxylic acid (4-chloro-benzyl)-[2-(5-hydroxy-1-methyl-1H-pyrazol-3-yl)-ethyl]-amide] was over 1000 nM.
The value for `CCOc1cc(CCN(Cc2ccc(Cl)cc2)C(=O)C2(C)CCN2C(=O)Cc2cc(C)cc(C)c2)nn1C` (stereo not shown) [Compound 118, 1-[2-(3,5-Dimethyl-phenyl)-acetyl]-2-methyl-azetidine-2-carboxylic acid (4-chloro-benzyl)-[2-(5-ethoxy-1-methyl-1H-pyrazol-3-yl)-ethyl]-amide] was over 1000 nM; that for `Cc1cc(C)cc(CC(=O)N2CCC2(C)C(=O)N(CCc2nnc(O)o2)Cc2ccc(Cl)cc2)c1` (stereo not shown) [Compound 119, 1-[2-(3,5-Dimethyl-phenyl)-acetyl]-2-methyl-azetidine-2-carboxylic acid (4-chloro-benzyl)-[2-(5-hydroxy-[1,3,4]oxadiazol-2-yl)-ethyl]-amide] was over 1000 nM; that for `CCOc1cc(CCN(Cc2ccc(Cl)cc2)C(=O)C2(C)CCN2C(=O)Cc2cc(C)cc(C)c2)n[nH]1` (stereo not shown) [Compound 120, 1-[2-(3,5-Dimethyl-phenyl)-acetyl]-2-methyl-azetidine-2-carboxylic acid (4-chloro-benzyl)-[2-(5-ethoxy-1H-pyrazol-3-yl)-ethyl]-amide] was over 1000 nM.
For the compound `CN(Cc1ccc(Cl)cc1)C(=O)C1(C)CCN1C(=O)c1ccc2occc2c1` (stereo not shown) [Compound 121, 1-(benzofuran-5-carbonyl)-N-(4-chlorobenzyl)-N,2-dimethylazetidine-2-carboxamide], the IC50 is over 1000 nM.

The term IC50 denotes the midpoint of a concentration-inhibition curve.
